# In patent US20240327393A1 (SIRONAX LTD., priority 2021, published 2024):
# System: HT-1080 (ATCC, CCL-121) cells
# Experiment: HT-1080 cell viability assay with ferroptosis inducer RSL3 (Cell Titer-Glo)
# Assay type: cell-based
# Details: HT-1080 cells treated with RSL3; 3-fold, 10-point dilution, 1.1 μM highest concentration; Table 3; read-out: EC50 (nM), ferroptosis inhibitory activity
# Summary of the method: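 HT-1080 cells (6000 per well) were cultured overnight at 37 °C, then co-treated with RSL3 and compound in a 3-fold, 10-point series topping at 1.1 μM. Viability was read by CellTiter-Glo luminescence and normalized to untreated controls. EC50 came from a sigmoidal non-linear regression fit.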
row,EC50 [nM],Compound
1,0.1 to 100,"Cc1cc(N2CCC(C(F)(F)F)C2)ccc1Nc1ccc2c(c1)OCC(=O)N2 (stereo not shown) [Compound 588, 7-((2-methyl-4-(3-(trifluoromethyl)pyrrolidin-1-yl)phenyl)amino)-2H-benzo[b][1,4]oxazin-3(4H)-one]"

# Same assay, conditions: Homo sapiens; HT-1080 cells treated with RSL3; 3-fold, 10-point dilution, 1.1 μM highest concentration; Table 2; read-out: EC50 (nM), ferroptosis inhibitory activity
row,Compound,EC50 [nM]
1,"CN1CCOc2cc(Nc3ccc4c(c3)n(C)c(=O)n4C)ccc21 [Compound 288, 1,3-dimethyl-5-((4-methyl-3,4-dihydro-2H-benzo[b][1,4]oxazin-7-yl)amino)-1,3-dihydro-2H-benzo[d]imidazol-2-one]",0.1 to 100
2,"Cn1c(=O)n(C)c2cc(Nc3ccc(C4CCCCC4)cc3)ccc21 [Compound 394, 5-((4-cyclohexylphenyl)amino)-1,3-dimethyl-1,3-dihydro-2H-benzo[d]imidazol-2-one]",0.1 to 100
3,"CC1CCC(C)N1c1ccc(Nc2ccc3c(=O)n(C)[nH]c3c2)cc1 (stereo not shown) [Compound 259, 6-((4-(2,5-dimethylpyrrolidin-1-yl)phenyl)amino)-2-methyl-1,2-dihydro-3H-indazol-3-one]",0.1 to 100
4,"CNCCN1C(=O)COc2cc(Nc3ccc(N4CC(C)OC(C)C4)c(C)c3)ccc21 (stereo not shown) [Compound 62, 7-((4-(2,6-dimethylmorpholino)-3-methylphenyl)amino)-4-(2-(methylamino)ethyl)-2H-benzo[b][1,4]oxazin-3(4H)-one]",0.1 to 100
5,"CN1Cc2cc(Nc3ccc(N4C[C@H]5CC[C@@H]4C5)cc3)ccc2C1=O [Compound 245, 5-((4-((1R,4S)-2-azabicyclo[2.2.1]heptan-2-yl)phenyl)amino)-2-methylisoindolin-1-one]",0.1 to 100
6,"CC1CN(c2ccc(Nc3ccc4c(c3)C(C)(C)C(=O)N4C)cc2)CC(C)O1 (stereo not shown) [Compound 428, 5-((4-(2,6-dimethylmorpholino)phenyl)amino)-1,3,3-trimethylindolin-2-one]",0.1 to 100
7,"CC1CCN(c2ncc(Nc3ccc4c(c3)n(C)c(=O)n4C)cn2)CC1 [Compound 376, 1,3-dimethyl-5-((2-(4-methylpiperidin-1-yl)pyrimidin-5-yl)amino)-1,3-dihydro-2H-benzo[d]imidazol-2-one]",0.1 to 100
8,"Cn1c(=O)n(C)c2cc(Nc3ccc(C4CCC(C)(C)CC4)cc3)ccc21 [Compound 407, 5-((4-(4,4-dimethylcyclohexyl)phenyl)amino)-1,3-dimethyl-1,3-dihydro-2H-benzo[d]imidazol-2-one]",0.1 to 100
9,"C#Cc1ccc(Nc2ccc3c(c2)n(C)c(=O)n3C)cc1 [Compound 290, 5-((4-ethynylphenyl)amino)-1,3-dimethyl-1,3-dihydro-2H-benzo[d]imidazol-2-one]",0.1 to 100
10,"CN(C)CCn1c(=O)n(C)c2cc(Nc3ccc(C4CCC(C)(C)CC4)cc3)ccc21 [Compound 405, 1-(2-(dimethylamino)ethyl)-5-((4-(4,4-dimethylcyclohexyl)phenyl)amino)-3-methyl-1,3-dihydro-2H-benzo[d]imidazol-2-one]",0.1 to 100
11,"CCC1Oc2cc(Nc3ccc(N4CC(C)OC(C)C4)cc3)ccc2N(C)C1=O (stereo not shown) [Compound 81, 7-((4-(2,6-dimethylmorpholino)phenyl)amino)-2-ethyl-4-methyl-2H-benzo[b][1,4]oxazin-3(4H)-one]",0.1 to 100

# Results, then the compound that gave them:
row,EC50 [nM],Compound
1,0.1 to 100,"Cn1c(=O)n(C)c2cc(Nc3ccc(N4CCC(C(F)(F)F)CC4)nc3)ccc21 [Compound 362, 1,3-dimethyl-5-((6-(4-(trifluoromethyl)piperidin-1-yl)pyridin-3-yl)amino)-1,3-dihydro-2H-benzo[d]imidazol-2-one]"
2,0.1 to 100,"CC1CCN(c2ccc(Nc3ccc4c(c3)CN(C)C4=N)cc2)CC1 [Compound 294, 1-imino-2-methyl-N-(4-(4-methylpiperidin-1-yl)phenyl)isoindolin-5-amine]"
3,0.1 to 100,"FC(F)(F)C1CCN(c2ccc(Nc3ccc4ncoc4c3)cc2)CC1 [Compound 360, N-(4-(4-(trifluoromethyl)piperidin-1-yl)phenyl)benzo[d]oxazol-6-amine]"
4,0.1 to 100,"Cn1[nH]c2cc(Nc3ccc(N4CCCCC4)cc3)ccc2c1=O [Compound 257, 2-methyl-6-((4-(piperidin-1-yl)phenyl)amino)-1,2-dihydro-3H-indazol-3-one]"
5,0.1 to 100,"CCn1[nH]c2cc(Nc3ccc(N4CCC(C(F)(F)F)CC4)cc3)ccc2c1=O [Compound 252, 2-ethyl-6-((4-(4-(trifluoromethyl)piperidin-1-yl)phenyl)amino)-1,2-dihydro-3H-indazol-3-one]"
6,0.1 to 100,"CC(C)(C)N1Cc2cc(Nc3ccc(N4CCC(C(F)(F)F)CC4)cc3)ccc2C1=O [Compound 197, 2-(tert-butyl)-5-((4-(4-(trifluoromethyl)piperidin-1-yl)phenyl)amino) isoindolin-1-one]"
7,0.1 to 100,"COCCOCCN1Cc2cc(Nc3ccc(N4CCC(C(F)(F)F)CC4)cc3)ccc2C1=O [Compound 198, 2-(2-(2-methoxyethoxy)ethyl)-5-((4-(4-(trifluoromethyl)piperidin-1-yl)phenyl)amino)isoindolin-1-one]"
8,0.1 to 100,"NCCc1cc(=O)oc2cc(Nc3ccc(N4CCC(C(F)(F)F)CC4)cc3)ccc12 [Compound 122, 4-(2-aminoethyl)-7-((4-(4-(trifluoromethyl)piperidin-1-yl)phenyl)amino)-2H-chromen-2-one]"
9,0.1 to 100,"COc1nc(N2CCC(C(F)(F)F)CC2)ccc1Nc1ccc2c(c1)n(C)c(=O)n2C [Compound 377, 5-((2-methoxy-6-(4-(trifluoromethyl)piperidin-1-yl)pyridin-3-yl)amino)-1,3-dimethyl-1,3-dihydro-2H-benzo[d]imidazol-2-one]"
10,0.1 to 100,"CC1CCN(c2ccc(Nc3ccc4c(c3)N(C)CC4(C)C)cc2)CC1 [Compound 338, 1,3,3-trimethyl-N-(4-(4-methylpiperidin-1-yl)phenyl)indolin-6-amine]"
11,0.1 to 100,"Cn1nnc2cc(Nc3ccc(N4CCC(C(F)(F)F)CC4)cc3)ccc21 [Compound 300, 1-methyl-N-(4-(4-(trifluoromethyl)piperidin-1-yl)phenyl)-1H-benzo[d][1,2,3]triazol-5-amine]"
12,0.1 to 100,"Cn1c(=O)oc2ccc(Nc3ccc(N4CCC(C(F)(F)F)CC4)cc3)cc21 [Compound 349, 3-methyl-5-((4-(4-(trifluoromethyl)piperidin-1-yl)phenyl)amino)benzo[d]oxazol-2(3)-one]"

# Same assay, conditions: Homo sapiens; HT-1080 cells treated with RSL3; 3-fold, 10-point dilution, 1.1 μM highest concentration; Table 3; read-out: EC50 (nM), ferroptosis inhibitory activity
row,Compound,EC50 [nM]
1,"Cc1cc(N2CC(O)(C(F)(F)F)C2)ccc1Nc1ccc2c(c1)ncn2C [Compound 651, 1-[3-methyl-4-[(1-methylbenzimidazol-5-yl)amino]phenyl]-3-(trifluoromethyl)azetidin-3-ol]",0.1 to 100
2,"Cc1cc(N2C[C@@H](C)O[C@@H](C)C2)ccc1Nc1ccc2cn(C)nc2c1 [Compound 637, N-(4-((2S,6R)-2,6-dimethylmorpholino)-2-methylphenyl)-2-methyl-2H-indazol-6-amine]",0.1 to 100
3,"Cc1cc(OC(F)F)ccc1Nc1ccc2c(c1)OCC(=O)N2 [Compound 653, 7-[4-(difluoromethoxy)-2-methyl-anilino]-4H-1,4-benzoxazin-3-one]",0.1 to 100
4,"COc1cc(Nc2cc(C)c3c(c2)OCC(=O)N3)c(C)cc1N1CCC(C(F)(F)F)CC1 [Compound 548, 7-((5-methoxy-2-methyl-4-(4-(trifluoromethyl)piperidin-1-yl)phenyl)amino)-5-methyl-2H-benzo[b][1,4]oxazin-3(4H)-one]",0.1 to 100
5,"CCC(C)(C)Nc1ccc(Nc2ccc3c(c2)OCC(=O)N3)c(C)c1 [Compound 659, 7-[4-(1,1-dimethylpropylamino)-2-methyl-anilino]-4H-1,4-benzoxazin-3-one]",0.1 to 100
6,"Cc1cc(N2CCC(F)C2)ccc1Nc1ccc2c(c1)OCC(=O)N2 (stereo not shown) [Compound 599, 7-{[4-(3-fluoropyrrolidin-1-yl)-2-methylphenyl]amino}-2,4-dihydro-1,4-benzoxazin-3-one]",0.1 to 100
7,"CCC1Oc2cc(Nc3ccc(C4CCOCC4)cc3)ccc2N(C)C1=O (stereo not shown) [Compound 472, 2-ethyl-4-methyl-7-((4-(tetrahydro-2H-pyran-4-yl)phenyl)amino)-2H-benzo[b][1,4]oxazin-3(4H)-one]",0.1 to 100

# More lines, now with the values ahead:
row,EC50 [nM],Compound
1,0.1 to 100,"COC(C)(C)C1CCN(c2ccc(Nc3ccc4c(c3)OCC(=O)N4)cc2)CC1 [Compound 560, 7-((4-(4-(2-methoxypropan-2-yl)piperidin-1-yl)phenyl)amino)-2H-benzo[b][1,4]oxazin-3(4H)-one]"
2,0.1 to 100,"Cc1cc(N2CCC(C(F)(F)F)CC2)ccc1Nc1ccc2c(c1)OCC(=O)N(C)C2 [Compound 631, 4-methyl-8-((2-methyl-4-(4-(trifluoromethyl)piperidin-1-yl)phenyl)amino)-4,5-dihydrobenzo[f][1,4]oxazepin-3(2H)-one]"
3,0.1 to 100,"Cc1cc(N2CCC(C(F)(F)F)CC2)ncc1Nc1ccc2c(c1)OCC(=O)N2C [Compound 452, 4-methyl-7-((4-methyl-6-(4-(trifluoromethyl)piperidin-1-yl)pyridin-3-yl)amino)-2H-benzo[b][1,4]oxazin-3(4H)-one]"
4,0.1 to 100,"COc1cc(N2CCC(C(F)(F)F)CC2)ccc1Nc1ccc2c(c1)OCC(=O)N2 [Compound 516, 7-((2-methoxy-4-(4-(trifluoromethyl)piperidin-1-yl)phenyl)amino)-2H-benzo[b][1,4]oxazin-3(4H)-one]"
5,0.1 to 100,"O=C1COc2cc(Nc3ccc(N4CCC(F)CC4)cc3)ccc2N1 [Compound 508, 7-((4-(4-fluoropiperidin-1-yl)phenyl)amino)-2H-benzo[b][1,4]oxazin-3(4H)-one]"
6,0.1 to 100,"Cc1cc(N2CCC(C(F)(F)F)CC2)ccc1Nc1ccc2c(c1)CN(C)C(=O)N2 [Compound 566, 3-methyl-6-({2-methyl-4-[4-(trifluoromethyl)piperidin-1-yl]phenyl}amino)-1,4-dihydroquinazolin-2-one]"
